Marks after values point to notes of the source that are not given here.
Tests used:
[1] = Study S.241.1.107: pharmacokinetics in hepatic impairment, 8 mg TID; conditions: for AUC(0-τ): AUC(0-8); for AUC(0-τ) / Cmax / T½: arith. mean (%CV); for Tmax: median
Experimental: The effect of hepatic impairment on the pharmacokinetics of cilansetron was evaluated in a multiple-dose, parallel group study in 14 healthy and 14 moderately to severely hepatically impaired male and female subjects, aged 41-70 years. Impaired subjects (Child-Pugh score 7 to 11) were matched to healthy subjects by age (±2 years), sex, menstrual status, and smoking history status. All subjects received oral cilansetron 8 mg TID on Days 1 to 5, and a single dose on the morning of Day 6. […] Blood samples were also collected at predose on Day 1, and at predose, 1 hour and 1.5 hours postdose on Day 6, for measurement of cilansetron protein binding in serum.

[2] = Study S.241.1.109: interaction with ketoconazole 200 mg BID; type: in vivo, human; conditions: for AUC(0-τ) / Cmax / Tmax: steady state; for AUC(0-τ): AUC(0-8); for AUC(0-τ) / Cmax: arith. mean; for Tmax: median
Experimental: In an open-label, randomized, parallel-group study in three groups of 12 healthy, male and female subjects (aged 19 to 45 years), subjects received a 2 mg single dose of cilansetron on Day 1, 2 mg TID on Days 2-13, and a 2 mg single dose on Day 14. […] All morning doses of cilansetron and enzyme inhibitors were administered immediately after a standard breakfast. […] For each treatment group, log-transformed cilansetron AUC(0-τ) and Cmax values on Day 14 (cilansetron+enzyme inhibitor) were compared statistically versus values on Day 7 (cilansetron alone).

[3] = Study S.241.1.110: pharmacokinetics in renal impairment, 2 mg TID; conditions: for AUC(0-τ) / Cmax / T½ / Tmax / Cmin: cilansetron 2 mg TID; for AUC(0-τ) / Cmax / T½ / Cmin: mean (%CV); for Tmax: median; for Cmin: Day 6 morning predose value
Experimental: The effect of renal impairment on the pharmacokinetics of cilansetron was evaluated in a study excluding subjects with end-stage renal disease, and utilizing a single-center, open-label, multiple-dose, parallel group study in 13 male and 9 female subjects, aged 33-74 years. […] Healthy subjects were matched to renally-impaired subjects with respect to age, weight, gender, and smoking status. All subjects received oral cilansetron 2 mg TID on Days 1 to 5, and a single dose on the morning of Day 6. Blood samples for measurement of plasma pharmacokinetics of cilansetron and its 4-hydroxy metabolites were collected up to 24 hours following dosing on Day 6, and log-transformed pharmacokinetic parameters for these analytes were statistically compared between study groups. Serum concentrations of unbound cilansetron and its 4-hydroxy metabolites were also measured prior to dosing and at 1 and 1.5 hours postdose on Day 6.

[4] = Study S.241.1.110: ex vivo protein binding in serum, healthy and renally impaired; conditions: for Fraction unbound ratio All Renal Groups Combined:Healthy / Fraction unbound ratio Mild:Healthy / Fraction unbound ratio Moderate:Healthy / Fraction unbound ratio Severe:Healthy: ratio (90% CI)
Experimental: The ex vivo protein binding of cilansetron and its 4-hydroxy metabolites has been measured in serum samples collected in a multiple-dose study in healthy and renally impaired male and female subjects, aged 33-74 years. […] Healthy subjects were matched to renally-impaired subjects with respect to age, weight, gender, and smoking status. All subjects received oral cilansetron 2 mg TID on Days 1 to 5, and a single dose on the morning of Day 6.

[5] = geometric LS mean ratio impaired/healthy, cilansetron 8 mg TID oral
[6] = healthy, cilansetron 8 mg TID oral
[7] = hepatically impaired, cilansetron 8 mg TID oral
[8] = Cilansetron 2 mg TID + Ketoconazole 200 mg twice daily
[9] = Cilansetron 2 mg TID alone (ketoconazole group)
[10] = cilansetron + ketoconazole / cilansetron alone, ANOVA of log-transformed data
[11] = moderate renal impairment, Day 6

Cc1nccn1CC1CCc2c(c3cccc4c3n2CC[C@@H]4O)C1=O (stereo partly drawn) [(4S)-hydroxy cilansetron]
AUC(0-τ) Ratio [1, 5]: 0.68
Cmax Ratio [1, 5]: 0.64
AUC(0-τ), Geom. LS Mean [1, 6]: 42.5 ng·h/mL
Cmax, Geom. LS Mean [1, 6]: 6.89 ng/mL
AUC(0-τ) [1, 6]: 47.9 (36) ng · h/mL
Cmax [1, 6]: 7.57 (33) ng/mL
T½ [1, 6]: 7.65 (17) h
Tmax [1, 6]: 3.00 h
AUC(0-τ), Geom. LS Mean [1, 7]: 29.1 ng·h/mL
Cmax, Geom. LS Mean [1, 7]: 4.39 ng/mL
AUC(0-τ) [1, 7]: 33.8 (57) ng · h/mL
Cmax [1, 7]: 5.17 (59) ng/mL
T½ [1, 7]: 9.41 (30) h
Tmax [1, 7]: 3.00 h
AUC(0-τ) decrease with hepatic impairment ([1]; in vivo): 32%
Cmax decrease with hepatic impairment ([1]; in vivo): 36%
AUC(0-τ) [2, 8]: 13.5 ng·h/mL
Cmax [2, 8]: 2.29 ng/mL
Tmax [2, 8]: 2.00 h
AUC(0-τ) [2, 9]: 8.42 ng·h/mL
Cmax [2, 9]: 1.35 ng/mL
Tmax [2, 9]: 3.00 h
AUC(0-τ) Ratio (Treatment B/A) [2, 10]: 163%
Cmax Ratio (Treatment B/A) [2, 10]: 174%
Plasma Conc. ([3]; Day 6 1 h, Healthy): 1.60 (26) ng/mL
Plasma Conc. ([3]; Day 6 1 h, Mild): 2.26 (43) ng/mL
Plasma Conc. ([3]; Day 6 1 h, Moderate): 2.74 (58) ng/mL
Plasma Conc. ([3]; Day 6 1 h, Severe): 8.32 (40) ng/mL
AUC(0-τ) ratio Mild/Healthy ([3]; Day 6, geometric LS mean ratio (90% CI)): 119 (85, 168) %
AUC(0-τ) ratio Moderate/Healthy ([3]; Day 6, ratio (90% CI)): 174 (120, 251)* %
AUC(0-τ) ratio Renal Combined/Healthy ([3]; Day 6, ratio (90% CI)): 219 (168, 286)* %
AUC(0-τ) ratio Severe/Healthy ([3]; Day 6, ratio (90% CI)): 507 (351, 733)* %
Cmax ratio Mild/Healthy ([3]; Day 6, ratio (90% CI)): 129 (91, 181) %
Cmax ratio Moderate/Healthy ([3]; Day 6, ratio (90% CI)): 171 (118, 248)* %
Cmax ratio Renal Combined/Healthy ([3]; Day 6, ratio (90% CI)): 220 (168, 288)* %
Cmax ratio Severe/Healthy ([3]; Day 6, ratio (90% CI)): 485 (335, 702)* %
T½ ratio Mild/Healthy ([3]; Day 6, ratio (90% CI)): 108 (81, 144) %
T½ ratio Moderate/Healthy ([3]; Day 6, ratio (90% CI)): 142 (104, 193) %
T½ ratio Renal Combined/Healthy ([3]; Day 6, ratio (90% CI)): 142 (113, 177)* %
T½ ratio Severe/Healthy ([3]; Day 6, ratio (90% CI)): 186 (136, 254)* %
Plasma Conc. ([3]; Day 6 […], Healthy): 1.68 (25) ng/mL
Plasma Conc. ([3]; Day 6 […], Mild): 1.91 (35) ng/mL
Plasma Conc. ([3]; Day 6 […], Moderate): 2.98 (56) ng/mL
Plasma Conc. ([3]; Day 6 […], Severe): 8.57 (32) ng/mL
AUC(0-τ) ([3]; healthy subjects, Day 6): 12.9 (25) ng · h/mL
Cmax ([3]; healthy subjects, Day 6): 2.15 (21) ng/mL
T½ ([3]; healthy subjects, Day 6): 8.68 (29) h
Tmax ([3]; healthy subjects, Day 6): 2.00 h
Cmin ([3]; healthy subjects): 1.24 (31) ng/mL
Mean AUC(0-τ) increase vs healthy ([3]; mild impairment): 19%
Mean Cmax increase vs healthy ([3]; mild impairment): 29%
AUC(0-τ) ([3]; mild renal impairment, Day 6): 15.3 (25) ng · h/mL
Cmax ([3]; mild renal impairment, Day 6): 2.77 (22) ng/mL
T½ ([3]; mild renal impairment, Day 6): 9.31 (24) h
Tmax ([3]; mild renal impairment, Day 6): 2.00 h
Cmin ([3]; mild renal impairment): 1.76 (38) ng/mL
Mean AUC(0-τ) increase vs healthy ([3]; moderate impairment): 74%
Mean Cmax increase vs healthy ([3]; moderate impairment): 71%
AUC(0-τ) [3, 11]: 25.3 (64) ng · h/mL
Cmax [3, 11]: 4.10 (60) ng/mL
T½ [3, 11]: 12.4 (28) h
Tmax [3, 11]: 1.75 h
Cmin ([3]; moderate renal impairment): 2.71 (72) ng/mL
Mean AUC(0-τ) increase vs healthy ([3]; severe impairment): 407%
Mean Cmax increase vs healthy ([3]; severe impairment): 385%
AUC(0-τ) ([3]; severe renal impairment, Day 6): 67.0 (35) ng · h/mL
Cmax ([3]; severe renal impairment, Day 6): 11.2 (46) ng/mL
T½ ([3]; severe renal impairment, Day 6): 16.7 (45) h
Tmax ([3]; severe renal impairment, Day 6): 1.40 h
Cmin ([3]; severe renal impairment): 7.00 (35) ng/mL
Fraction unbound ratio All Renal Groups Combined:Healthy ([4]; 1 h): 102 (86, 121) %
Fraction unbound ratio Mild:Healthy ([4]; 1 h): 81 (65, 101) %
Fraction unbound ratio Moderate:Healthy ([4]; 1 h): 124 (98, 156) %
Fraction unbound ratio Severe:Healthy ([4]; 1 h): 106 (84, 133) %
Fraction Unbound in Serum ([4]; Day 6 1 h, Healthy): 53.6 (20) %
Fraction Unbound in Serum ([4]; Day 6 1 h, Mild): 42.8 (7) %
Fraction Unbound in Serum ([4]; Day 6 1 h, Moderate): 69.3 (45) %
Fraction Unbound in Serum ([4]; Day 6 1 h, Severe): 56.1 (15) %
Fraction Unbound in Serum ([4]; Day 6 […], Healthy): 58.0 (21) %
Fraction Unbound in Serum ([4]; Day 6 […], Mild): 46.3 (11) %
Fraction Unbound in Serum ([4]; Day 6 […], Moderate): 57.4 (28) %
Fraction Unbound in Serum ([4]; Day 6 […], Severe): 42.4 (9) %
Fraction Unbound in Serum ([4]; Day 6 predose, Healthy): 51.9 (24) %
Fraction Unbound in Serum ([4]; Day 6 predose, Mild): 48.9 (40) %
Fraction Unbound in Serum ([4]; Day 6 predose, Moderate): 54.0 (26) %
Fraction Unbound in Serum ([4]; Day 6 predose, Severe): 51.4 (30) %
Fraction unbound ratio All Renal Groups Combined:Healthy ([4]; […]): 84 (72, 99) %
Fraction unbound ratio Mild:Healthy ([4]; […]): 81 (67, 99) %
Fraction unbound ratio Moderate:Healthy ([4]; […]): 99 (80, 123) %
Fraction unbound ratio Severe:Healthy ([4]; […]): 75 (60, 93)^b %
Protein bound on average ([4]; healthy subjects): 42.0-48.1%
Fraction unbound ratio All Renal Groups Combined:Healthy ([4]; predose): 98 (79, 121) %
Fraction unbound ratio Mild:Healthy ([4]; predose): 91 (69, 121) %
Fraction unbound ratio Moderate:Healthy ([4]; predose): 104 (77, 140) %
Fraction unbound ratio Severe:Healthy ([4]; predose): 98 (73, 133) %
Plasma protein bound ([4]; therapeutic concentration range): 42-48%

Source: patent US20090176817A1, “Method of Treatment of Diarrhea-Predominant Irritable Bowel Syndrome in a Subject” (priority 2005, published 2009)
